In patent publication US20250197368A1 (priority 2020, published 2025):

Columns and labels:
[1] = molecular target: human α2β3γ2 GABAARs (benzodiazepine site) (Homo sapiens (Human), UniProt P18507+P47869); test: In vitro radioligand binding assay ([3H]Ro15-1788 displacement), α2-GABAAR Ki
Summary of the method: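 Ki derived via Cheng-Prusoff from IC50 for displacement of 4 nM [3H]Ro15-1788 (Kd from saturation binding), with 1-3 μM TP003 defining nonspecific binding. Incubation lasted 1 h at 4° C on membranes of induced L(tk−) cells stably transfected with the human subunits; detection by filtration and scintillation counting.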

human α2β3γ2 GABAARs = test: In vitro electrophysiological recording assay (automated patch-clamp), α2-GABAAR relative efficacy; type: cell-based; conditions: % efficacy normalised to diazepam; GABA EC10-20; concentration generally >= 100 times Ki
Summary of the method: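 Relative efficacy is % enhancement of the leak-subtracted GABA EC10-20 peak current, divided by the separately measured diazepam value; compound generally tested at ≥100× Ki after ≥1 min pre-application. Recordings at room temperature, human receptors stably expressed in L(tk^−) (QPatch, −65 mV) or HEK293 (SyncroPatch, −80 mV) cells.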

human α2β3γ2 GABAARs (benzodiazepine site), sequence (P47869 29-451): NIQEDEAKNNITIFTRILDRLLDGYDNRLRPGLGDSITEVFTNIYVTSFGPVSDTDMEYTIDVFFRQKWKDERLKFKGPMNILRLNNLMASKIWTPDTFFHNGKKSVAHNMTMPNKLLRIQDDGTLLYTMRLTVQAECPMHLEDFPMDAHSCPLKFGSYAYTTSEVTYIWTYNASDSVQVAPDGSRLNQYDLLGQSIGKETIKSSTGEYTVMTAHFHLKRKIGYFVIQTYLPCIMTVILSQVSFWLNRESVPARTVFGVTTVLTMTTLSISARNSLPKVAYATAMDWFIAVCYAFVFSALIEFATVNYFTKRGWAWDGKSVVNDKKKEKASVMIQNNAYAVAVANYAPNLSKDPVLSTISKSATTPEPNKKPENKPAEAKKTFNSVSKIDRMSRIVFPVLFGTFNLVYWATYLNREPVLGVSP
human α2β3γ2 GABAARs (benzodiazepine site), sequence (P28472 26-473 partner): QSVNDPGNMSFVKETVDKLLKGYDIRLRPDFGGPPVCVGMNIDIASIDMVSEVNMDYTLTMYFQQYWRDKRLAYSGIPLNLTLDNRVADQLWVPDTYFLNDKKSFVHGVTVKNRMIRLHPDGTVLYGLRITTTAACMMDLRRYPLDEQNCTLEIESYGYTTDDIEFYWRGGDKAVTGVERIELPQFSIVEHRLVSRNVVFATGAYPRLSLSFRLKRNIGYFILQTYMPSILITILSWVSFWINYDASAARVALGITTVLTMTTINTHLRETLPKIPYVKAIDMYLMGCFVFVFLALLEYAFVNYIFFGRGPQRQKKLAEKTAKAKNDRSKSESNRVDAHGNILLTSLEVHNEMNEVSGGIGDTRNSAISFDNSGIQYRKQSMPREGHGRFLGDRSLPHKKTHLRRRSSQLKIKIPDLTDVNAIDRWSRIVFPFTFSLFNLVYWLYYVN
human α2β3γ2 GABAARs (benzodiazepine site), sequence (P18507 40-475): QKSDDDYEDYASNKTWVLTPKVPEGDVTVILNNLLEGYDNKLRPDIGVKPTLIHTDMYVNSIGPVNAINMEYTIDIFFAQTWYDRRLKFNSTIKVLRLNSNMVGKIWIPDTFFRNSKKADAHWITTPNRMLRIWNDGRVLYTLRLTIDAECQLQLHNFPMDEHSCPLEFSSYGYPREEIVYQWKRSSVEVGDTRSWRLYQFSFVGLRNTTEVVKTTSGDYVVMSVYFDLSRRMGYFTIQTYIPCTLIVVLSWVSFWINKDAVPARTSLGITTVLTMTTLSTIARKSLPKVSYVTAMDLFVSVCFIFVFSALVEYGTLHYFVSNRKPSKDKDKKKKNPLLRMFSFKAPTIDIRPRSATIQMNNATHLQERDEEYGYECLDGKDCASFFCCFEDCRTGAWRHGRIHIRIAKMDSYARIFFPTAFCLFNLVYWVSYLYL

Row | SMILES | Ki [1] [nM] | α2-GABAAR Relative Efficacy (vs. Diazepam) (human α2β3γ2 GABAARs)
1 | CCCNC(=O)c1c(N)c2cccc(-c3cn(C)nc3C)c2n(CC)c1=O [Example 83, 4-Amino-8-(1,3-dimethylpyrazol-4-yl)-1-ethyl-2-oxo-N-propyl-quinoline-3-carboxamide] | 15.7 | 0.40
2 | CCCNC(=O)c1c(N)c2cccc(-c3cc(OCc4ccccn4)ccc3C)c2[nH]c1=O [Example 86, 4-Amino-8-[2-methyl-5-(2-pyridylmethoxy)phenyl]-2-oxo-N-propyl-1H-quinoline-3-carboxamide] | 1.71 | 0.28
3 | CCCNC(=O)c1c(N)c2cccc(-c3cccc(OCc4ccccn4)c3)c2[nH]c1=O [Example 87, 4-Amino-2-oxo-N-propyl-8-[3-(2-pyridylmethoxy)phenyl]-1H-quinoline-3-carboxamide] | 1.78 | 0.24
4 | CCCNC(=O)c1c(N)c2cccc(-c3cc(OCc4cccc(OC)n4)ccc3F)c2[nH]c1=O [Example 89, 4-Amino-8-[2-fluoro-5-[(6-methoxy-2-pyridyl)methoxy]phenyl]-2-oxo-N-propyl-1H-quinoline-3-carboxamide] | 1.55 | 0.3
5 | CCCNC(=O)c1c(N)c2cccc(-c3cc(OCc4cccc(C(F)(F)F)n4)ccc3F)c2[nH]c1=O [Example 90, 4-Amino-8-[2-fluoro-5-[[6-(trifluoromethyl)-2-pyridyl]methoxy]phenyl]-2-oxo-N-propyl-1H-quinoline-3-carboxamide] | 3 | 0.18
6 | CCCNC(=O)c1c(N)c2cccc(-c3cc(OCc4ccc(F)cn4)ccc3C)c2[nH]c1=O [Example 93] | 1.63 | 0.34
7 | CCCNC(=O)c1c(N)c2cccc(-c3cccc(OCc4ccc(F)cn4)c3)c2[nH]c1=O [Example 94, 4-Amino-8-[3-[(5-fluoro-2-pyridyl)methoxy]phenyl]-2-oxo-N-propyl-1H-quinoline-3-carboxamide] | 2.42 | 0.28
8 | CCCNC(=O)c1c(N)c2cccc(-c3cc(OCc4ccc(C)cn4)ccc3F)c2[nH]c1=O [Example 95, 4-Amino-8-[2-fluoro-5-[(5-methyl-2-pyridyl)methoxy]phenyl]-2-oxo-N-propyl-1H-quinoline-3-carboxamide] | 0.44 | 0.22
9 | CCCNC(=O)c1c(N)c2cccc(-c3cc(OCc4ccc(OC)cn4)ccc3F)c2[nH]c1=O [Example 96, 4-Amino-8-[2-fluoro-5-[(5-methoxy-2-pyridyl)methoxy]phenyl]-2-oxo-N-propyl-1H-quinoline-3-carboxamide] | 0.92 | 0.24
10 | CCCNC(=O)c1c(N)c2cccc(-c3cc(OCc4ccc(Cl)cn4)ccc3F)c2[nH]c1=O [Example 97, 4-Amino-8-[5-[(5-chloro-2-pyridyl)methoxy]-2-fluoro-phenyl]-2-oxo-N-propyl-1H-quinoline-3-carboxamide] | 0.72 | 0.25
11 | CCCNC(=O)c1c(N)c2cccc(-c3cc(OCc4ccc(C(F)(F)F)cn4)ccc3F)c2[nH]c1=O [Example 98, 4-Amino-8-[2-fluoro-5-[[5-(trifluoromethyl)-2-pyridyl]methoxy]phenyl]-2-oxo-N-propyl-1H-quinoline-3-carboxamide] | 0.61 | 0.29
12 | CCCNC(=O)c1c(N)c2cccc(-c3cc(OCc4ccc(C#N)cn4)ccc3F)c2[nH]c1=O [Example 99, 4-Amino-8-[5-[(5-cyano-2-pyridyl)methoxy]-2-fluoro-phenyl]-2-oxo-N-propyl-1H-quinoline-3-carboxamide] | 0.24 | 0.28
13 | CCCNC(=O)c1c(N)c2cccc(-c3cc(OCc4cc(OC)ccn4)ccc3F)c2[nH]c1=O [Example 100, 4-Amino-8-[2-fluoro-5-[(4-methoxy-2-pyridyl)methoxy]phenyl]-2-oxo-N-propyl-1H-quinoline-3-carboxamide] | 0.07 | 0.18
14 | CCCNC(=O)c1c(N)c2cccc(-c3cc(OCc4cc(C#N)ccn4)ccc3F)c2[nH]c1=O [Example 101, 4-Amino-8-[5-[(4-cyano-2-pyridyl)methoxy]-2-fluoro-phenyl]-2-oxo-N-propyl-1H-quinoline-3-carboxamide] | 0.19 | 0.31
15 | CCCNC(=O)c1c(N)c2cccc(-c3cc(OCc4cc(CO)ccn4)ccc3F)c2[nH]c1=O [Example 102, 4-Amino-8-(2-fluoro-5-((4-(hydroxymethyl)pyridin-2-yl)methoxy)phenyl)-2-oxo-N-propyl-1,2-dihydroquinoline-3-carboxamide] | 0.7 | 0.33
16 | CCCNC(=O)c1c(N)c2cccc(-c3cc(OCc4ncccc4C)ccc3F)c2[nH]c1=O [Example 103, 4-Amino-8-[2-fluoro-5-[(3-methyl-2-pyridyl)methoxy]phenyl]-2-oxo-N-propyl-1H-quinoline-3-carboxamide] | 1.68 | 0.37
17 | CCCNC(=O)c1c(N)c2cccc(-c3cc(COc4ccccn4)ncc3F)c2[nH]c1=O [Example 104, 4-Amino-8-(5-fluoro-2-((pyridin-2-yloxy)methyl)pyridin-4-yl)-2-oxo-N-propyl-1,2-dihydroquinoline-3-carboxamide] | 2.08 | 0.27
18 | CCCNC(=O)c1c(N)c2cccc(-c3cc(OCc4cccnn4)ccc3F)c2[nH]c1=O [Example 105, 4-Amino-8-[2-fluoro-5-(pyridazin-3-ylmethoxy)phenyl]-2-oxo-N-propyl-1H-quinoline-3-carboxamide] | 0.21 | 0.19
19 | CCCNC(=O)c1c(N)c2cccc(-c3cc(OCc4ccnnc4)ccc3F)c2[nH]c1=O [Example 106, 4-Amino-8-[2-fluoro-5-(pyridazin-4-ylmethoxy)phenyl]-2-oxo-N-propyl-1H-quinoline-3-carboxamide] | 0.41 | 0.22
20 | CCCNC(=O)c1c(N)c2cccc(-c3cc(OCc4cncnc4)ccc3F)c2[nH]c1=O [Example 107, 4-Amino-8-[2-fluoro-5-(pyrimidin-5-ylmethoxy)phenyl]-2-oxo-N-propyl-1H-quinoline-3-carboxamide] | 0.2 | 0.17
21 | CCCNC(=O)c1c(N)c2cccc(-c3cc(OCc4cccnc4)ccc3F)c2[nH]c1=O [Example 108, 4-Amino-8-[2-fluoro-5-(3-pyridylmethoxy)phenyl]-2-oxo-N-propyl-1H-quinoline-3-carboxamide] | 0.39 | 0.32
22 | CCCNC(=O)c1c(N)c2cccc(-c3cc(OCc4cccnc4C#N)ccc3F)c2[nH]c1=O [Example 109, 4-Amino-8-[5-[(2-cyano-3-pyridyl)methoxy]-2-fluoro-phenyl]-2-oxo-N-propyl-1H-quinoline-3-carboxamide] | 0.17 | 0.21
23 | CCCNC(=O)c1c(N)c2cccc(-c3cc(COc4ccc(C)nc4)ccc3F)c2[nH]c1=O [Example 112, 4-Amino-8-[2-fluoro-5-[(6-methyl-3-pyridyl)oxymethyl]phenyl]-2-oxo-N-propyl-1H-quinoline-3-carboxamide] | 0.57 | 0.11
24 | CCCNC(=O)c1c(N)c2cccc(-c3cc(OCc4ccncc4)ccc3F)c2[nH]c1=O [Example 113, 4-Amino-8-[2-fluoro-5-(4-pyridylmethoxy)phenyl]-2-oxo-N-propyl-1H-quinoline-3-carboxamide] | 0.12 | 0.24
25 | CCCNC(=O)c1c(N)c2cccc(-c3cc(OCc4ccc(F)cc4C#N)ccc3F)c2[nH]c1=O [Example 114, 4-Amino-8-[5-[(2-cyano-4-fluoro-phenyl)methoxy]-2-fluoro-phenyl]-2-oxo-N-propyl-1H-quinoline-3-carboxamide] | 0.73 | 0.38
26 | CCCNC(=O)c1c(N)c2cccc(-c3cc(OCc4ccc(C#N)cc4OC)ccc3F)c2[nH]c1=O [Example 115, 4-Amino-8-[5-[(4-cyano-2-methoxy-phenyl)methoxy]-2-fluoro-phenyl]-2-oxo-N-propyl-1H-quinoline-3-carboxamide] | 2.01 | 0.34
27 | CCCNC(=O)c1c(N)c2cccc(-c3cc(OCc4ccoc4)ccc3F)c2[nH]c1=O [Example 116, 4-Amino-8-(2-fluoro-5-(furan-3-ylmethoxy)phenyl)-2-oxo-N-propyl-1,2-dihydroquinoline-3-carboxamide] | 1.17 | 0.42
28 | CCCNC(=O)c1c(N)c2cccc(-c3cc(OCc4scnc4C)ccc3F)c2[nH]c1=O [Example 117, 4-Amino-8-[2-fluoro-5-[(4-methylthiazol-5-yl)methoxy]phenyl]-2-oxo-N-propyl-1H-quinoline-3-carboxamide] | 1.6 | 0.23
29 | CCCNC(=O)c1c(N)c2cccc(-c3cc(OCc4nc(C)cs4)ccc3F)c2[nH]c1=O [Example 118, 4-Amino-8-[2-fluoro-5-[(4-methylthiazol-2-yl)methoxy]phenyl]-2-oxo-N-propyl-1H-quinoline-3-carboxamide] | 0.5 | 0.29
30 | CCCNC(=O)c1c(N)c2cccc(-c3cc(OCc4cscn4)ccc3F)c2[nH]c1=O [Example 119, 4-Amino-8-(2-fluoro-5-(thiazol-4-ylmethoxy)phenyl)-2-oxo-N-propyl-1,2-dihydroquinoline-3-carboxamide] | 0.31 | 0.38
